Data: ChEMBL document CHEMBL5346936, “Functionalized sulfonyl anthranilic acid derivatives inhibit replication of all the four dengue serotypes” (Eur J Med Chem, 2023)
Calls of active or inactive are those of the source. No cut-off for these calls is given here.

Columns and labels:
[1] = Selectivity index, ratio of CC50 for human Huh-7 cells to EC50 for antiviral activity against DENV-2 EDEN 3295; assay type: toxicity; settings: read-out: Ratio CC50/EC50
dengue virus type 2 [2] = assay: Antiviral activity against DENV-2 EDEN 3295 infected in 10^5 human Huh-7 cells at 0.3 MOI for 1 hr followed by compound treatment for 48 hrs; assay type: functional, organism-based; settings: EDEN 3295, Huh-7
[3] = Cytotoxicity against human Huh-7 cells treated for 48 hrs measured by celltitre-glo luminescent assay; assay type: toxicity, cell-based
dengue virus type 2 [4] = assay: Antiviral activity against DENV-2 infected in human Huh-7 cells at MOI 1 assessed as reduction of intracellular viral titre at 10 uM, 2 hr prior to infection measured after 48 hrs measured by RT-PCR analysis; assay type: functional, organism-based; settings: time 50.0 hrs
dengue virus type 2 [5] = assay: Antiviral activity against DENV-2 infected in human Huh-7 cells at MOI 1 assessed as log reduction of intracellular viral titre at 10 uM measured after 60 hrs post infection by RT-PCR analysis; assay type: functional
dengue virus type 2 [6] = assay: Antiviral activity against DENV-2 infected in human Huh-7 cells assessed as reduction of viral protein NS3 expression at 10 uM for 12 hrs post infection by RT-PCR analysis; assay type: functional, organism-based
dengue virus type 2 [7] = assay: Antiviral activity against DENV-2 infected with green monkey Vero cells; assay type: functional, organism-based
[8] = Cytotoxicity against asian tiger mosquito C6/36 cells; assay type: toxicity, cell-based; settings: aedes albopictus
[9] = Cytotoxicity against hamster BHK-21 cells; assay type: toxicity, cell-based, Mesocricetus auratus
dengue virus type 2 [10] = assay: Antiviral activity against DENV-2 infected in human Huh-7 cells assessed as reduction of viral protein NS5 expression at 10 uM for 12 hrs post infection by RT-PCR analysis; assay type: functional, organism-based
dengue virus type 2 [11] = assay: Antiviral activity against DENV-2 infected with hamster BHK-21 cells; assay type: functional, organism-based
[12] = Cytotoxicity against green monkey Vero cells; assay type: toxicity, cell-based; settings: chlorocebus sabaeus
dengue virus type 2 [13] = assay: Antiviral activity against DENV-2 infected in human Huh-7 cells at MOI 1 assessed as reduction of intracellular viral titre at 10 uM measured after 24 hrs post infection by RT-PCR analysis; assay type: functional, organism-based
dengue virus type 2 [14] = assay: Antiviral activity against DENV-2 infected with human Calu-1 cells; assay type: functional, organism-based
[15] = Cytotoxicity against human A549 cells; assay type: toxicity, cell-based
[16] = Cytotoxicity against human Calu-1 cells; assay type: toxicity, cell-based
dengue virus type 2 [17] = assay: Antiviral activity against DENV-2 infected in human Huh-7 cells at MOI 1 assessed as reduction of intracellular viral titre at 10 uM during infection measured after 48 hrs measured by RT-PCR analysis; assay type: functional, organism-based
dengue virus type 2 [18] = assay: Antiviral activity against DENV-2 infected with human A549 cells; assay type: functional, organism-based
dengue virus type 2 [19] = assay: (§1) Inhibition of DENV-2 NS5 polymerase incubated for 1 hr measured by fluorescence based alkaline phosphate coupled polymerase assay
dengue virus type 2 [20] = assay: Antiviral activity against DENV-2 infected in human Huh-7 cells at MOI 1 assessed as reduction of intracellular viral titre at 10 uM measured after 2 hrs post infection by RT-PCR analysis; assay type: functional, organism-based
[21] = Cytotoxicity against human Huh-7 cells; assay type: toxicity, cell-based
dengue virus type 2 [22] = assay: Antiviral activity against DENV-2 infected with asian tiger mosquito C6/36 cells; assay type: functional, organism-based
dengue virus type 2 [23] = assay: Antiviral activity against DENV-2 EDEN 3295 infected in 10^5 human Huh-7 cells at 0.3 MOI for 1 hr followed by compound treatment at 10 uM for 48 hrs relative to control; assay type: functional
dengue virus type 2 [24] = assay: Inhibition of DENV-2 NS5 polymerase incubated for 1 hr measured at 30 uM by fluorescence based alkaline phosphate coupled polymerase assay
[25] = as §1; parameters: species or system dengue virus type 2

Row | Structure (SMILES) | selectivity ratio [1] | EC50 (dengue virus type 2 [2]) [µM] | CC50 at 48 h [3] [µM] | Activity (dengue virus type 2 [23]) [%] | further results
1 | C#C[C@@]1(O)[C@H](O)[C@@H](CO)O[C@H]1n1ccc2c(N)ncnc21 | 434 | 0.23 | – | – | –
2 | CCCOc1ccc(NS(=O)(=O)c2cccc3cccnc23)c(C(=O)NCCCc2ccccc2)c1 | > 25.6 | 3.9 | > 100 | – | –
3 | O=C(Nc1ccccc1)c1cc(Oc2cccc(Br)c2)ccc1NS(=O)(=O)c1cccc2cccnc12 | 14.7 | 4.4 | 64.7 | – | –
4 | CCCOc1ccc(NS(=O)(=O)c2cccc3cccnc23)c(C(=O)NCc2ccccc2)c1 | – | – | > 100 | – | Activity (dengue virus type 2 [4]): inactive; log(activity) (dengue virus type 2 [5]): 3; Activity (dengue virus type 2 [6]): Active; EC50 (dengue virus type 2 [7]): 1.09 µM; CC50 [8]: > 100 µM; CC50 [9]: > 25 µM; Activity (dengue virus type 2 [10]): Active; EC50 (dengue virus type 2 [11]): 20 µM; CC50 [12]: > 25 µM; Activity (dengue virus type 2 [13]): Active; EC50 (dengue virus type 2 [14]): 0.18 µM; CC50 [15]: > 100 µM; CC50 [16]: > 100 µM; Activity (dengue virus type 2 [17]): inactive; EC50 (dengue virus type 2 [18]): 1.38 µM; inhibition (dengue virus type 2 [19]): inactive; Activity (dengue virus type 2 [20]): Active; CC50 [21]: > 100 µM; EC50 (dengue virus type 2 [22]): > 10 µM
5 | O=C(NCc1ccccc1)c1ccccc1NS(=O)(=O)c1cccc2cccnc12 | – | – | – | 0 | –
6 | O=C(NCc1ccccc1)c1cc(Oc2ccccc2)ccc1NS(=O)(=O)c1cccc2cccnc12 | > 25.4 | 3.9 | > 100 | – | –
7 | CCc1cccc(Oc2ccc(NS(=O)(=O)c3cccc4cccnc34)c(C(=O)NCc3ccc4c(c3)OCO4)c2)c1 | > 16.9 | 5.9 | > 100 | – | –
8 | CCc1cccc(Oc2ccc(NS(C)(=O)=O)c(C(=O)NCc3ccc(F)c(F)c3)c2)c1 | 1.21 | 33.9 | 41.1 | – | inhibition (dengue virus type 2 [24]): inactive
9 | COc1ccc(CNC(=O)c2cc(Oc3cccc(Br)c3)ccc2NS(=O)(=O)c2cccc3cccnc23)cc1OC | – | – | – | 50 | –
10 | O=C(NCc1ccc(F)c(F)c1)c1cc(Oc2cccc(Br)c2)ccc1NS(=O)(=O)c1cccc2cccnc12 | > 17.8 | 5.6 | > 100 | – | –
11 | CCc1cccc(Oc2ccc(NS(C)(=O)=O)c(C(=O)N[C@H](C)c3ccccc3)c2)c1 | 2.85 | 17.9 | 51.1 | – | inhibition (dengue virus type 2 [24]): inactive
12 | COc1ccc(NS(=O)(=O)c2cccc3cccnc23)c(C(=O)NCc2ccccc2)c1 | > 20.8 | 4.8 | > 100 | – | –
13 | O=C(NCc1ccccc1)c1cc(Oc2cccc(Br)c2)ccc1NS(=O)(=O)N1CCOCC1 | – | – | – | 0 | –
14 | O=C(OC1=CS(=O)(=O)Nc2ccc(Oc3ccccc3Br)cc21)c1ccc(F)c(F)c1 | – | – | – | – | IC50 [25]: 18.4 µM
15 | O=C(NCc1ccccc1)c1cc(F)ccc1NS(=O)(=O)c1cccc2cccnc12 | – | – | – | 0 | –
16 | COc1ccc(CNC(=O)c2cc(Oc3cccc(Br)c3)ccc2NS(C)(=O)=O)cc1OC | 2.05 | 48.8 | 100 | – | inhibition (dengue virus type 2 [24]): inactive
17 | CCc1cccc(Oc2ccc(NS(C)(=O)=O)c(C(=O)NCc3ccccc3)c2)c1 | 1.75 | 44.9 | 78.6 | – | inhibition (dengue virus type 2 [24]): inactive
18 | NC(=O)c1cc(Oc2cccc(Br)c2)ccc1NS(=O)(=O)c1cccc2cccnc12 | – | – | – | 27.5 | –
19 | CCCOc1ccc(NC(=O)c2cccc3cccnc23)c(C(=O)NCc2ccccc2)c1 | > 17 | 5.6 | > 100 | – | –
20 | CCCOc1ccc(NS(=O)(=O)c2cccc3cccnc23)c(C(=O)N(CC)Cc2ccccc2)c1 | – | – | – | 25 | –

Row | Structure (SMILES) | selectivity ratio [1] | EC50 (dengue virus type 2 [2]) [µM] | CC50 at 48 h [3] [µM] | Activity (dengue virus type 2 [23]) [%] | further results
21 | CCCOc1ccc(NS(=O)(=O)c2cccc3cccnc23)c(C(=O)NC2CCCc3ccccc32)c1 (stereo not drawn) | > 52.6 | 1.9 | > 100 | – | –
22 | O=C(NCc1ccccc1)c1cc(Oc2cccc(Br)c2)ccc1NS(=O)(=O)c1cccnc1 | – | – | – | 12.5 | –
23 | O=C(NCc1ccccc1)c1cc(Oc2cccc(Br)c2)ccc1NS(=O)(=O)c1cccc2cccnc12 | > 13.6 | 7.3 | > 100 | – | –
24 | CCCOc1ccc(NS(=O)(=O)c2cccc3cccnc23)c(C(=O)NC(CC)CC)c1 | > 45 | 2.2 | > 100 | – | –
25 | CS(=O)(=O)Nc1ccc(Oc2cccc(Br)c2)cc1C(=O)NCc1ccc(F)c(F)c1 | – | 42.6 | 40.3 | – | inhibition (dengue virus type 2 [24]): inactive
26 | CCCOc1ccc(NS(=O)(=O)c2cccc3cccnc23)c(C(=O)NC2CCC2)c1 | > 40 | 2.5 | > 100 | – | –
27 | CCCOc1ccc(NS(=O)(=O)c2cccc3cccnc23)c(C(=O)NCCN2CCCCC2)c1 | – | – | – | 20 | –
28 | CCCOc1ccc(NS(=O)(=O)c2cccc3ccccc23)c(C(=O)NCc2ccccc2)c1 | – | – | – | 0 | –
29 | O=C(NCc1ccccc1)c1cc(Oc2cccc(Br)c2)ccc1NS(=O)(=O)c1ccc(F)c(F)c1 | 3.56 | 12.5 | 44.5 | – | –
30 | CCc1cccc(Oc2ccc(NS(=O)(=O)c3cccc4cccnc34)c(C(=O)NCc3ccccc3)c2)c1 | > 32.8 | 3 | > 100 | – | –
31 | O=C(NCc1ccccc1)c1cc(Oc2cccc(Br)c2)ccc1NS(=O)(=O)c1cccs1 | – | – | – | 0 | –
32 | O=C(NCc1ccccc1)c1cc(Oc2cccc(Br)c2)ccc1NS(=O)(=O)c1ccc2c(c1)CCO2 | – | – | – | 32.5 | –
33 | CCCOc1cc(C(=O)NCc2ccccc2)ccc1NS(=O)(=O)c1cccc2cccnc12 | – | – | – | 0 | –
34 | CCCOc1ccc(NS(=O)(=O)c2cccc3cccnc23)c(C(=O)N2CCc3ccccc3C2)c1 | > 16.4 | 6.1 | > 100 | – | –
35 | CCCOc1ccc(NS(=O)(=O)c2cccc3cccnc23)c(C(=O)NC2CC2)c1 | > 11 | 8.7 | > 100 | – | –
36 | O=C(NCc1ccccc1)c1cc(OCC2CCCCC2)ccc1NS(=O)(=O)c1cccc2cccnc12 | – | – | – | 45 | –
37 | CCCOc1ccc(NS(=O)(=O)c2cccc3cccnc23)c(C(=O)NCCc2ccccc2)c1 | > 45.5 | 2.2 | > 100 | – | –
38 | CS(=O)(=O)Nc1ccc(Oc2cccc(Br)c2)cc1C(=O)NCc1ccccc1 | 1.39 | 47.5 | 66.4 | – | inhibition (dengue virus type 2 [24]): inactive
39 | COc1ccc(C(=O)NCc2ccccc2)c(NS(=O)(=O)c2cccc3cccnc23)c1 | – | – | – | 0 | –
